The source of these data is patent US8431563B2 (priority 2010, dated 2013).

pEC50: −log10 of the molar value. Where a name gives a salt, the structure may show the parent alone.

In assay [1] the target is T1, GKRP (Glucokinase Regulatory Protein) with human His-hepatic GK (Homo sapiens, UniProt Q14397).
T1 sequence (Q14397 1-625): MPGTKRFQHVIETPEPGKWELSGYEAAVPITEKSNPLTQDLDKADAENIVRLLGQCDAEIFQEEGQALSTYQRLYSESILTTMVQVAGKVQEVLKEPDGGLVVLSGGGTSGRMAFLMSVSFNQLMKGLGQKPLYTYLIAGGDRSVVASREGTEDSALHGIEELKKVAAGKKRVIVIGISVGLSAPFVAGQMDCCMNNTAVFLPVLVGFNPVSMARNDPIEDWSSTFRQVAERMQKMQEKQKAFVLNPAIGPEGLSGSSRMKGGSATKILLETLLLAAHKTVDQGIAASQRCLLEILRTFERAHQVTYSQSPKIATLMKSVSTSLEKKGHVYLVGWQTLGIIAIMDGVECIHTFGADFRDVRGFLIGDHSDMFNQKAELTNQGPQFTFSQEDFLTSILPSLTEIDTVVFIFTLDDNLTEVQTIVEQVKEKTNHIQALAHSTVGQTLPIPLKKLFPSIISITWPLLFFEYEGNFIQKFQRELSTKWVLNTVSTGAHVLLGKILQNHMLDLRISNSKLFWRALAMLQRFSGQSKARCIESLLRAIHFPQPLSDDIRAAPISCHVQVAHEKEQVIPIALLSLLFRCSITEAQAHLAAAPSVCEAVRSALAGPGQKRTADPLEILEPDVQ
Put plainly: GKRP NADPH Coupled Assay. The assay is classed as biochemical. The settings on record: indirect measure of glucose-6-phosphate, fluorescence, 1 μM GKRP (10×), 20 nM GK (5×). The procedure: (§1) This assay is used to directly measure the formation of ^13C-glucose-6-phosphate from ^13C-glucose by liquid chromatography-mass spectrometry (LC MS/MS). Begin by preparing the following solutions: Compound Buffer (CB): 50 mM Tris, pH 7.5/4 mM MgCl2/6% DMSO/fresh 10 mM DTT from 1M frozen stock. Enzyme Buffer (EB): 50 mM Tris, pH 7.5/4 mM MgCl2/6% DMSO/fresh 0.1% BSA/fresh 0.01% Brij-35 (10% BSA and 1% Brij-35 stock). GK (Glucokinase) Working Stock (5×): Dilute human His-hepatic GK to 30 nM in EB buffer. […] After 30 minutes add 10 μl of GK Working Stock (5×). Re-seal the plate and incubate for another 30 minutes at room temperature while mixing. After the second 30 minutes, stop the reaction by the addition of 50 μl of 100% acetonitrile, seal, and mix for 5-10 minutes. Run 10 μl of this sample through the LC MS/MS (API 3200, Applied Biosystems Inc., Carlsbad, Calif.).
This assay is used as an indirect measure of glucose-6-phosphate (G6P) formed from glucose due to the enzymatic activity of glucokinase. Assay format is the same as for GKRP LC MS/MS Biochemical Assay with the following exceptions. GK Working Stock (5×): Dilute human His-hepatic GK to 20 nM in EB buffer. Stop & Detection Reagent (2×): Dilute β-nicotinamide adenine dinucleotide phosphate sodium salt (β-NADP) (Aldrich-Sigma, St. Louis, Mo.) to 2 mM from 100 mM stock (stock in 10 mM Tris, pH 9.2) and dilute glucose-6-phosphate dehydrogenase (Aldrich-Sigma, St. Louis, Mo.) to 0.04 Unit/μl from 10 Unit/μl (stock in 10 mM Tris pH 7.5/0.05% Brij-35) in 0.2 M Tris, pH 9.2/8% DMSO. After the initial 30 minute incubation add 10 μl of 20 nM GK diluted in EB (5×). Re-seal the plate and incubate for another 1 hour at room temperature while mixing. After 1 hour remove the seal and add 50 μl of Stop & Detection Reagent and incubate for 5 minutes at room temperature while mixing.

Assay [2] deals with T1, GKRP (Glucokinase Regulatory Protein) with human His-hepatic GK. The assay is described as follows: GKRP LC MS/MS Biochemical Assay. Conditions: 13C-glucose-6-phosphate formation, 1 μM GKRP (10×), 30 nM GK (5×). The procedure: GKRP LC MS/MS Biochemical Assay
as §1

In the case of `CC(O)(c1ccc(N2CCN(S(=O)(=O)c3ccccc3)CC2CC2CCOCC2)cc1)C(F)(F)F` (stereo not shown) [Example 41, 1,1,1-trifluoro-2-(4-(4-(phenylsulfonyl)-2-(tetrahydro-2H-pyran-4-ylmethyl)-1-piperazinyl)phenyl)-2-propanol], the pEC50 was 6.11 in assay [1] (read-out: GK-GKRP EC50 (NADPH-coupled)) and 6.24 in assay [2] (read-out: GK-GKRP EC50 (LC MS/MS)).
For `CC(O)(c1ccc(-c2ccc(S(=O)(=O)c3ccccc3)c(Cl)c2)cc1)C(F)(F)F` (racemic) [Example 19, 2-(3′-chloro-4′-(phenylsulfonyl)-4-biphenylyl)-1,1,1-trifluoro-2-propanol], the pEC50 was 5.45 in assay [1] (GK-GKRP EC50 (NADPH-coupled)) and 5.37 in assay [2] (GK-GKRP EC50 (LC MS/MS)).
Taken in the same sequence, the figures for `CC(O)(c1ccc(N2CCN(S(=O)(=O)c3cccs3)CC2CN2CCOCC2)cc1)C(F)(F)F` (mixture of isomers) [Example 61, 1,1,1-trifluoro-2-(4-(2-(4-morpholinylmethyl)-4-(2-thiophenylsulfonyl)-1-piperazinyl)phenyl)-2-propanol] were 6.64 and 6.45.
In the case of `CC(O)(c1ccc(N2CCN(S(=O)(=O)c3cccs3)CC2CN2CCOCC2CO)cc1)C(F)(F)F` (mixture of isomers) [Example 48, 1,1,1-trifluoro-2-(4-(2-((3-(hydroxymethyl)-4-morpholinyl)methyl)-4-(2-thiophenylsulfonyl)-1-piperazinyl)phenyl)-2-propanol], the pEC50 is 6.41 in assay [1] (GK-GKRP EC50 (NADPH-coupled)) and 6.22 in assay [2] (GK-GKRP EC50 (LC MS/MS)).
For `CN(Cc1ccccc1)CC1CN(S(=O)(=O)c2cccs2)CCN1c1ccc(C(C)(O)C(F)(F)F)cc1` (mixture of isomers) [Example 62, 2-(4-(2-((benzyl(methyl)amino)methyl)-4-(2-thiophenylsulfonyl)-1-piperazinyl)phenyl)-1,1,1-trifluoro-2-propanol], the pEC50 was 6.00 in assay [1] (GK-GKRP EC50 (NADPH-coupled)) and 5.91 in assay [2] (GK-GKRP EC50 (LC MS/MS)).
For `Cc1ccc(CC2CN(S(=O)(=O)c3cccs3)CCN2c2ccc(C(O)(C(F)(F)F)C(F)(F)F)cc2)cc1` (racemic) [Example 43, 1,1,1,3,3,3-hexafluoro-2-(4-(2-(4-methylbenzyl)-4-(2-thiophenylsulfonyl)-1-piperazinyl)phenyl)-2-propanol hydrochloride] the same measures were 5.60 and 5.58.
For `CC(O)(c1ccc(N2CCN(S(=O)(=O)c3cccs3)CC2Cc2ccc(F)cc2)cc1)C(F)(F)F` (mixture of isomers) [Example 40, 1,1,1-trifluoro-2-(4-(2-(4-fluorobenzyl)-4-(2-thiophenylsulfonyl)-1-piperazinyl)phenyl)-2-propanol] the same measures were 6.05 and 5.90.
As for `CC(O)(c1ccc(N2CCN(S(=O)(=O)c3cccs3)CC2CC2CCOCC2)cc1)C(F)(F)F` (single isomer, unassigned) [Example 37 Peak #2, 1,1,1-trifluoro-2-(4-(2-(tetrahydro-2H-pyran-4-ylmethyl)-4-(2-thiophenylsulfonyl)-1-piperazinyl)phenyl)-2-propanol], the pEC50 in assay [1] (GK-GKRP EC50 (NADPH-coupled)) is 6.91; in assay [2] (GK-GKRP EC50 (LC MS/MS)), 6.89.
Regarding `O=S(=O)(c1cccc(Cl)c1)N1CCN(c2ccc(C(O)(C(F)(F)F)C(F)(F)F)cc2)CC1` [Example 9, 2-(4-(4-(3-chlorophenylsulfonyl)piperazin-1-yl)phenyl)-1,1,1,3,3,3-hexafluoro-2-propanol], the figures for the pEC50 in assay [1] (GK-GKRP EC50 (NADPH-coupled)) and in assay [2] (GK-GKRP EC50 (LC MS/MS)) were 5.36 and 5.43, respectively.
For the molecule `O=S(=O)(c1ccccc1Cl)N1CCN(c2ccc(C(O)(C(F)(F)F)C(F)(F)F)cc2)CC1` [Example 10, 2-(4-(4-((2-chlorophenyl)sulfonyl)-1-piperazinyl)phenyl)-1,1,1,3,3,3-hexafluoro-2-propanol], the results for the pEC50 in assay [1] (GK-GKRP EC50 (NADPH-coupled)) and in assay [2] (GK-GKRP EC50 (LC MS/MS)) were 5.40 and 5.59, respectively.
As for `CC(O)(c1ccc(N2CCN(S(=O)(=O)c3cccs3)CC2CN2CC3CCC(C2)O3)cc1)C(F)(F)F` (racemic) [Example 46, 1,1,1-trifluoro-2-(4-(2-(8-oxa-3-azabicyclo[3.2.1]oct-3-ylmethyl)-4-(2-thiophenylsulfonyl)-1-piperazinyl)phenyl)-2-propanol], the values for the pEC50 in assay [1] (GK-GKRP EC50 (NADPH-coupled)) and in assay [2] (GK-GKRP EC50 (LC MS/MS)) were 6.81 and 6.75, respectively.
For `O=S(=O)(c1ccccn1)N1CCN(c2ccc(C(O)(C(F)(F)F)C(F)(F)F)cc2)CC1` [Example 7, 1,1,1,3,3,3-hexafluoro-2-(4-(4-(2-pyridinylsulfonyl)-1-piperazinyl)phenyl)-2-propanol] the same measures were 5.42 and 5.48.
As for `O=S(=O)(c1ccccc1)N1CCN(c2ccc(C(O)(C3CC3)C(F)(F)F)cc2)CC1` (racemic) [Example 15, 1-cyclopropyl-2,2,2-trifluoro-1-(4-(4-(phenylsulfonyl)-1-piperazinyl)phenyl)ethanol], the results for the pEC50 in assay [1] (GK-GKRP EC50 (NADPH-coupled)) and in assay [2] (GK-GKRP EC50 (LC MS/MS)) were 5.58 and 5.56, respectively.
For the molecule `O=S(=O)(c1ccccc1)c1ccc(-c2ccc(C(O)(C(F)(F)F)C(F)(F)F)cn2)cc1` [Example 17, 1,1,1,3,3,3-hexafluoro-2-(6-(4-(phenylsulfonyl)phenyl)-3-pyridinyl)-2-propanol], the figures for the pEC50 in assay [1] (GK-GKRP EC50 (NADPH-coupled)) and in assay [2] (GK-GKRP EC50 (LC MS/MS)) were 5.79 and 5.77, respectively.
`CC(O)(c1ccc(N2CCN(S(=O)(=O)c3ccccc3)CC2)cc1)C(F)(F)F` (racemic) [Example 24, 1,1,1-trifluoro-2-(4-(4-(phenylsulfonyl)-1-piperazinyl)phenyl)-2-propanol]: the pEC50 in assay [1] (GK-GKRP EC50 (NADPH-coupled)) was 5.74; in assay [2] (GK-GKRP EC50 (LC MS/MS)) it was 5.40.
Turning to `O=S(=O)(c1cccs1)N1CCN(c2ccc(C(O)(C(F)(F)F)C(F)(F)F)cc2-c2ccc(O)cc2)CC1` [Example 74, 2′-(4-(2-thiophenylsulfonyl)-1-piperazinyl)-5′-(2,2,2-trifluoro-1-hydroxy-1-(trifluoromethyl)ethyl)-4-biphenylol], the pEC50 was 5.83 in assay [1] (GK-GKRP EC50 (NADPH-coupled)) and 5.86 in assay [2] (GK-GKRP EC50 (LC MS/MS)).
For `CC(C)(O)C#Cc1cc(-c2ccc(C(C)(O)C(F)(F)F)cc2)ccc1S(=O)(=O)c1ccccc1` (racemic) [Example 20, 2-methyl-4-(4-(phenylsulfonyl)-4′-(2,2,2-trifluoro-1-hydroxy-1-methylethyl)-3-biphenylyl)-3-butyn-2-ol] the same measures were 5.74 and 5.65.
As for `C[C@H]1CN(S(=O)(=O)c2nnc(N)s2)CCN1c1ccc(C(C)(O)C(F)(F)F)cc1` (mixture of isomers) [Example 35, 2-(4-((2S)-4-((5-amino-1,3,4-thiadiazol-2-yl)sulfonyl)-2-methyl-1-piperazinyl)phenyl)-1,1,1-trifluoro-2-propanol], the pEC50 in assay [1] (GK-GKRP EC50 (NADPH-coupled)) is 5.52; in assay [2] (GK-GKRP EC50 (LC MS/MS)), 5.25.
Consider `CC(O)(c1ccc(N2CCN(S(=O)(=O)c3cccs3)CC2COCc2ccccc2)cc1)C(F)(F)F` (mixture of isomers) [Example 44 Step 5, 2-(4-(2-((benzyloxy)methyl)-4-(2-thiophenylsulfonyl)-1-piperazinyl)phenyl)-1,1,1-trifluoro-2-propanol], for which the figures for the pEC50 in assay [1] (GK-GKRP EC50 (NADPH-coupled)) and in assay [2] (GK-GKRP EC50 (LC MS/MS)) were 6.38 and 6.21, respectively.
For `CC(O)(c1ccc(N2CCN(S(=O)(=O)c3cccs3)CC2CN2CCOC(CO)C2)cc1)C(F)(F)F` (mixture of isomers) [Example 52, 1,1,1-trifluoro-2-(4-(2-((2-(hydroxymethyl)-4-morpholinyl)methyl)-4-(2-thiophenylsulfonyl)-1-piperazinyl)phenyl)-2-propanol] the same measures were 5.79 and 5.93.
